Usually IC50 stands for the concentration that gives 50% inhibition.

Read-outs that look alike come from different tables or passages of the source.

Data on 1 compound can be found in paper PMC4942819 (Scientific Reports, 2016).

The subject of data set [1] is Vero cells. The data set can be described thus: cytotoxicity, MTT assay. Particulars: Chlorocebus sabaeus. It is filed as cell-based. Here is the method:
(§1) The compounds were examined for toxicity (IC50) using MTT assay. Briefly, cells (3 ~ 5 × 10^3 cells/well) were seeded in a 96-well plate. After 24 h incubation, the cells were treated with various concentrations of drugs for 24, 48, 72 h, respectively. Columns one and two in the assay plates contained-media +0.1% DMSO for a negative control ,Then, 20 μl of a 5 mg/mL MTT solution was added to each well, and the plates were incubated for an additional 2~4 h at 37 °C. The medium was subsequently discarded, and DMSO 150 μL was added to dissolve the formazan. Oscillate 15 min, the OD 570 was measured using a Spectra MAX M5 microplate spectrophotometer (Molecular Devices, CA, USA), and the IC50 values were calculated.
(§2) Compound MIC was conducted by ShangHai Chempartner Co., Ltd (Shanghai, China) using the microplate Alamar Blue assay (MABA) against Mycobacterium tuberculosis H37Ra (ATCC 25177). Cytotoxicity of tested compounds was assessed on Vero cells.
For orientation: Tetrazolium assays rely on reduction of a dye to a coloured formazan, in cell work by metabolically active cells.

The test system of data set [2] is A549 cells. Nature of the data set: cytotoxicity, MTT assay. It is filed as cell-based. To be noted: Homo sapiens. Here is the method:
as §1

Data set [3] concerns J774A.1 cells. Nature of the data set: cytotoxicity, MTT assay. The class given is cell-based. To be noted: Mus musculus, J774.A1. Here is the method:
as §1

The test system of data set [4] is MDR-TB clinical isolates. The data set can be described thus: microbe, parasite or virus in culture. It is filed as cell-based. Particulars: Mycobacterium tuberculosis.
Data set [5] concerns M. tuberculosis Erdman in J774A.1 cells. The data set can be described thus: macrophage assay, intracellular activity. The class given is cell-based, Mycobacterium tuberculosis. Particulars: for Fold(log) reduction: decrease of log10 CFU between D7 and treatment group, J774A.1, 0.02 μM (Fig. 2 legend: 0.02 μg/mL). Here is the method:
As described previously, J774A.1 cells were grown in 75-cm2 cell culture flasks in 10% FBS in Dulbecco’s modified Eagle’s medium (DMEM) until confluency. The cells were detached using a cell scraper, and then centrifuged at 200 g for 5 min at room temperature. The cells were incubated at 37 °C under 5% CO2 for 16 h after distributing into 24-well plates containing coverslips. M. tuberculosis Erdman (ATCC 35801) were diluted to a final concentration of 1 × 10^5 to 3 × 10^5 CFU/mL with DMEM after thawing and sonicating from frozen cultures. And 500 ul of the dilution was dispensed to each well of a new 24-well plate. Followed by, J774A.1 cells on coverslips were infected by incubation with M. tuberculosis Erdman at 37 °C for 2 h. Coverslips were then washed with HBSS and transferred to new 24-well plates. The Cultures were treated in triplicate with compounds at 0.02 μM containing DMEM and incubated at 37 °C under 5% CO2 for 16 h. At D 0 (for untreated controls) and after 7 days of incubation, macrophage cells were lysed by addition of 200 μL of 0.25% sodium dodecyl sulfate. The plates were incubated at 37 °C for 10 min, and 200 μL of DMEM was added. The lysate was sampled using a microtube and sonicated for 15 s. Then 1:1, 1:10, 1:100, and 1:1,000 dilutions were plated on 7H11 agar plates and CFU counts determined after 2 to 3 weeks of incubation at 37 °C.

Data set [6] relates to Mycobacterium tuberculosis H37Ra (ATCC 25177). Nature of the data set: microplate Alamar Blue assay (MABA), MIC, H37Ra. The class given is cell-based. Here is the method: as §2
Background: Resazurin is reduced to fluorescent resorufin, in cell work by metabolically active cells.

The nature of data set [7]: plasma protein binding. It is filed as in vitro ADME. Particulars: mouse, (M), read-out: Plasma protein binding (converted). Here is the method: The In vitro ADME/T assays were conducted at WuXi AppTec Co. Ltd.(Shanghai). ClogP was calculated with ChemDraw Ultra 14.0. In the study of bi-directional permeability across MDR1-MDCKII cell monolayer, permeability was correlated with the apparent permeability coefficient Papp (cm/s), which was interpreted as follows: Low permeability( Papp ≤ 1.0×10^-6 cm/s), Moderate permeability(1.0×10^-6 < Papp < 5.5×10^-6 cm/s) or High permeability( Papp ≥ 5.5×10^-6 cm/s). ^aaqueous solubility at room temperature.

With `O=[N+]([O-])c1cc(C(F)(F)F)cc2c(=S)nc(N3CCC4(CC3)OCCO4)sc12` [SKLB-TB1001, 8-nitro-2-(1,4-dioxa-8-azaspiro[4.5]decan-8-yl)-6-(trifluoromethyl)-4H-benzo[e][1,3]thiazine-4-thione], the IC50 in data set [1] (Vero, cytotoxicity, read-out: IC50 Vero) was more than 100 µg/mL; in data set [1] (cytotoxicity on Vero cells, read-out: IC50), more than 20 µM; in data set [2], more than 100 µg/mL; in data set [3] it was more than 32 µg/mL. For the same compound, the MIC in data set [4] (read-out: MIC, MDR-TB strain M3) is less than 0.0156 µg/mL; in data set [4] (read-out: MIC, MDR-TB strain M4) it was less than 0.0156 µg/mL; in data set [4] (read-out: MIC, MDR-TB strain M8), less than 0.0156 µg/mL; in data set [4] (read-out: MIC, MDR-TB strain M18) it was less than 0.0156 µg/mL; in data set [6], less than 0.1 µM. Also, the “Log10 CFU, intracellular Mtb Erdman” value in data set [5] (J774A.1 macrophages, 0.02 μM (Fig. 2 legend: 0.02 μg/mL), 7 days) is reported as 4.77. In addition, the “Fold(log) reduction” value in data set [5] was 2.08 log; in data set [5] (listed as SKLB-1001), 2.1 log. The fraction unbound in data set [7] was 0.038.
